{"source": "patent US9408871B2", "about": "“Methods for inhibiting complement activation and uses thereof” (THE UNIVERSITY OF BRITISH COLUMBIA, priority 2013, dated 2016)", "key": {"[1]": {"molecular_target": "T1, C1-esterase inhibitor (C1-inh) (Homo sapiens, UniProt P05155)", "T1 sequence (P05155 23-500)": "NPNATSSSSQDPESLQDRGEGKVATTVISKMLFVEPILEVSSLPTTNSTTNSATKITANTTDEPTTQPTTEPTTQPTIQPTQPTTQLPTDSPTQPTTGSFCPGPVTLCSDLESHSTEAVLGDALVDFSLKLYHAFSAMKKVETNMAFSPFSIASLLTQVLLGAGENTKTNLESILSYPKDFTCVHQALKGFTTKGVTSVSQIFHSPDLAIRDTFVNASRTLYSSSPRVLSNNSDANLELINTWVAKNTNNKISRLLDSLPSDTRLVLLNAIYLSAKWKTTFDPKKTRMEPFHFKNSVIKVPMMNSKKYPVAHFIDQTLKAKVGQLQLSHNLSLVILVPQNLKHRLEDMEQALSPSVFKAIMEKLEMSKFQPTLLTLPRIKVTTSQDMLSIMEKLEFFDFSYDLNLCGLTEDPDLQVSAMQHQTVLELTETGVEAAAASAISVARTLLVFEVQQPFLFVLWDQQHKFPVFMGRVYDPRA", "assay": "C1s-mediated cleavage of C4 in the presence of C1-inh (SDS-PAGE)", "type": "biochemical", "conditions": "10-500 μM, 2.5 nM C1-inh", "experimental": "We tested whether polyP affects the inhibitory properties of C1-inh on C1s-mediated cleavage and activation of complement factor C4 and C2. SDS-PAGE followed by coomassie staining of gels was used to monitor cleavage of C4 by C1s in the presence/absence of C1-inh and/or polyP in a purified system.\n2.5 nM C1s (reaction 1) or 2.5 nM C1-inh (reaction 2), and 300 μM polyP were incubated in 20 mM Hepes, 0.15 M NaCl, pH 7.5, 0.01% Tween buffer for 90 minutes at 37° C. 2.5 nM C1-inh (reaction 1) or 0.5 nM C1s (reaction 2) was added and incubated for 30 minutes at 37° C. 1.5 μM C4 was added and incubated for 5 minutes at 37° C. The reactions were quenched with 5× loading buffer and β-ME. Samples were taken and run on an SDS-PAGE 8% gel (FIG. 15B).\nBriefly, 2.5 nM C1s with 5-300 μM of polyP130 (reaction 1; FIG. 16A) or polyP1000 (reaction 2; FIG. 16B) were incubated in 20 mM Hepes, 0.15 M NaCl, pH 7.5, 0.01% Tween buffer for 90 minutes at 37° C. 2.5 nM C1s was added and incubated for 30 minutes at 37° C. 1.5 μM C4 was added and incubated for 5 minutes at 37° C. The reactions were quenched with 5× loading buffer and β-ME.\nBriefly, 2.5 nM C1s with 10-500 μM of polyP14, polyP60, polyP130, polyP1000 were incubated in 20 mM Hepes, 0.15 M NaCl, pH 7.5, 0.01% Tween buffer for 90 minutes at 37° C. 2.5 nM C1s was added and incubated for 30 minutes at 37° C. […]"}, "[2]": {"system": "terminal pathway (TP) of complement", "assay": "serum-based terminal pathway (TP) hemolytic assay (2% NHS, C5b,6, chicken erythrocytes)", "type": "cell-based, human", "conditions": "100 μM (based on the monomeric form)", "excerpt": "Erythrocyte lysis assays were used to measure complement-mediated hemolytic activity. Erythrocyte (RBC) lysis assays as previously described^18,37 were used to measure complement activity. For alternative pathway assays and for total hemolytic activity assays, unsensitized rabbit erythrocytes were used. Chicken erythrocytes were used for the terminal pathway assays.\nErythrocytes were washed three times in GVB with the reaction buffers as indicated, and counted using the Advia 120 Hematology System from Siemens (Siemens, Erlangen, Germany). Reactions in 300 μL were allowed to proceed for 30 min at 37° C., after which unlysed cells were pelleted by centrifugation at 600×g. Erythrocyte lysis, reflected by the released hemoglobin in the supernatant, was quantified by measuring the absorbance at 405 nm using the Mithras LB 940 microplate reader from Berthold Technologies (Bad Wildbad, Germany). Percent lysis was determined relative to the control of 100% lysis with H2O. For total hemolytic and terminal pathway (TP) assays, the concentrations of NHS and C5b,6 to initiate complement activation were established from pilot studies to obtain ˜70-80% erythrocyte lysis at 30 min.\nFor serum-based terminal pathway (TP) hemolytic assays, components were diluted in GVB containing 10 mM EDTA (GVB-E), the latter added to prevent upstream complement activation and generation of endogenous C5b,6. 2% NHS was used as the source of C7, C8, and C9, and hemolysis of chicken erythrocytes (cRBC) (3.3×10^8 cells/mL) was initiated by addition of exogenous purified C5b,6, the concentration of which was determined from pilot studies to yield ˜70-80% lysis at 30 min. No C5b,6 activity was detected in the NHS prior to initiating the reaction. For some experiments, instead of NHS, purified terminal pathway complement components were used in the TP assays. In these assays, in a final volume of 300 uL GVB, lysis was achieved by the sequential addition of the following components: cRBC (3.3×10^8 cells/mL), C5b,6 (20 μM), C7 (15 nM), C8 (10 nM), and C9 (25 nM). The unlysed cell pellet was removed by centrifugation and lysis was measured immediately after the 30-minute reaction. A standard curve for the terminal pathway assay using serum as the source of complement (FIG. 2) was generated using a fixed serum concentration at 2%, and increasing concentrations of purified C5b,6 dose-dependently lysed chicken erythrocytes after 30 min at 37° C. […] of purified C5b,6 was therefore used to fix baseline lysis at ˜80% to allow assessment of the inhibitory effects of polyphosphate in serum.\nTP activity in NHS(2%), measured by lysis of cRBC, was initiated by adding a limiting amount of exogenous purified C5b,6 (250 pM) to achieve 70-80% lysis after 30 min. A molar excess of EDTA was used to prevent upstream activation of complement and generation of endogenous C5b,6. In the absence of C5b,6, there was no detectable complement-mediated cRBC lysis. P1 at concentrations ranging from 0.1 to 1000 μM, had no effect on complement-mediated hemolysis in NHS via the TP (FIG. 5A). By contrast, polyphosphate>1000 inhibited the TP in serum in a concentration-dependent manner, with an IC50 of ˜10 μM polyphosphate>1000 (dotted lines) (calculated based on monomeric phosphate)."}}}
{"smiles": "O=P([O-])([O-])OP(=O)([O-])OP(=O)([O-])[O-].[Na+].[Na+].[Na+].[Na+].[Na+]", "note": "[P3, triphosphate (Na5P3O10)]", "values": [{"measurement": "effect of polyP size on C1-inh (C4 cleavage by C1s)", "setting": "[1]", "value": "had no effect on C1-inh"}, {"measurement": "effect on TP hemolytic activity at equivalent concentration", "setting": "[2]", "value": "had no effect"}]}
{"smiles": "O=P([O-])([O-])OP(=O)([O-])[O-].[Na+].[Na+].[Na+].[Na+]", "note": "[P2, diphosphate (Na4P2O7)]", "values": [{"measurement": "effect of polyP size on C1-inh (C4 cleavage by C1s)", "setting": "[1]", "value": "had no effect on C1-inh"}, {"measurement": "effect on TP hemolytic activity at equivalent concentration", "setting": "[2]", "value": "had no effect"}]}
